Data: the NIST ThermoML archive (doi:10.1016/j.fluid.2006.06.005)
± gives the expanded uncertainty stated by the source.

settings: 323.15 K; Liquid

vapor or sublimation pressure	SMILES
7.72 ± 0.28 kPa	CC(=O)O [acetic acid]
55.61 ± 0.52 kPa	CO [methanol]
12.35 ± 0.17 kPa	O [water]
79.21 ± 0.71 kPa	COC(C)=O [methyl ethanoate]
